Results taken from ChEMBL document CHEMBL1201862, “PubChem BioAssay data set” (2004).
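Tested at 5 concentrations; 48 h exposure; 96-well plates; endpoints linearly interpolated, else capped at highest concentration. The concentration for 50% growth inhibition is given as GI50.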 Activity calls are given as the source filed them. No stated cut-off is given here; in the data, active = GI50 up to about 1.1 µM and inactive = higher.

Legend:
Test in all cases: NCI-60 cell line screen, 48 h
[1] = test system: MCF7
[2] = test system: KM12
[3] = test system: 786-0
[4] = test system: HT-29
[5] = test system: RPMI-8226
[6] = test system: K562
[7] = test system: MDA-MB-435
[8] = test system: MDA-MB-231
[9] = test system: HCC 2998
[10] = test system: ACHN
[11] = test system: UO-31
[12] = test system: NCI-H522
[13] = test system: SW-620
[14] = test system: SNB-75
[15] = test system: HL-60
[16] = test system: SNB-19
[17] = test system: TK-10
[18] = test system: DU-145
[19] = test system: HCT-116
[20] = test system: OVCAR-4
[21] = test system: PC-3
[22] = test system: RXF 393
[23] = test system: OVCAR-8
[24] = test system: OVCAR-5
[25] = test system: SK-MEL-5
[26] = test system: EKVX
[27] = test system: SN12C
[28] = test system: CCRF-CEM
[29] = test system: SK-OV-3
[30] = test system: MDA-N
[31] = test system: HOP-92
[32] = test system: OVCAR-3
[33] = test system: T47D
[34] = test system: UACC-257
[35] = test system: NCI-H460
[36] = test system: SF-539
[37] = test system: NCI-H23
[38] = test system: HCT-15
[39] = test system: MOLT-4
[40] = test system: M14
[41] = test system: NCI/ADR-RES
[42] = test system: SF-295
[43] = test system: SF-268
[44] = test system: SK-MEL-2
[45] = test system: U-251
[46] = test system: SK-MEL-28
[47] = test system: IGROV-1
[48] = test system: BT-549
[49] = test system: COLO 205
[50] = test system: A549
[51] = test system: Hs-578T
[52] = test system: Malme-3M
[53] = test system: LOX IMVI
[54] = test system: UACC-62
[55] = test system: CAKI-1
[56] = test system: A498
[57] = test system: NCI-H226
[58] = test system: HOP-62

Q: Which GI50 [1] does the source give for O=C(O)C1CCCCC1c1c2ccc(=O)cc-2oc2cc(O)ccc12 (stereo not given) here?
A: 27.6 µM (inactive)

Q: And the GI50 [2]?
A: 19.9 µM (inactive)

Q: What about the GI50 [3] of the same compound?
A: 32.1 µM (inactive)

Q: And the GI50 [4]?
A: 29.3 µM (inactive)

Q: And the GI50 [5]?
A: 23 µM (inactive)

Q: What about the GI50 [6] of the same compound?
A: 14.1 µM (inactive)

Q: What about the GI50 [7] of the same compound?
A: 13.4 µM (inactive)

Q: What about the GI50 [8] of the same compound?
A: 30.8 µM (inactive)

Q: And the GI50 [9]?
A: 31 µM (inactive)

Q: What about the GI50 [10] of the same compound?
A: 31.8 µM (inactive)

Q: What about the GI50 [11] of the same compound?
A: 61 µM (inactive)

Q: And the GI50 [12]?
A: 17.7 µM (inactive)

Q: And the GI50 [13]?
A: 44.9 µM (inactive)

Q: And the GI50 [14]?
A: 25.1 µM (inactive)

Q: And the GI50 [15]?
A: 54.6 µM (inactive)

Q: And the GI50 [16]?
A: 48.6 µM (inactive)

Q: What about the GI50 [17] of the same compound?
A: 52.1 µM (inactive)

Q: And the GI50 [18]?
A: 26.5 µM (inactive)

Q: What about the GI50 [19] of the same compound?
A: 31 µM (inactive)

Q: What about the GI50 [20] of the same compound?
A: 23.1 µM (inactive)

Q: What about the GI50 [21] of the same compound?
A: 28.8 µM (inactive)

Q: And the GI50 [22]?
A: 18.7 µM (inactive)

Q: And the GI50 [23]?
A: 26.5 µM (inactive)

Q: What about the GI50 [24] of the same compound?
A: 29.4 µM (inactive)

Q: What about the GI50 [25] of the same compound?
A: 36.2 µM (inactive)

Q: And the GI50 [26]?
A: 33.5 µM (inactive)

Q: What about the GI50 [27] of the same compound?
A: 41.7 µM (inactive)

Q: And the GI50 [28]?
A: 42.8 µM (inactive)

Q: What about the GI50 [29] of the same compound?
A: 32.1 µM (inactive)

Q: What about the GI50 [30] of the same compound?
A: 21.6 µM (inactive)

Q: And the GI50 [31]?
A: 12 µM (inactive)

Q: What about the GI50 [32] of the same compound?
A: 24.4 µM (inactive)

Q: What about the GI50 [33] of the same compound?
A: 19.1 µM (inactive)

Q: What about the GI50 [34] of the same compound?
A: 65.3 µM (inactive)

Q: What about the GI50 [35] of the same compound?
A: 32.4 µM (inactive)

Q: What about the GI50 [36] of the same compound?
A: 18 µM (inactive)

Q: What about the GI50 [37] of the same compound?
A: 29.8 µM (inactive)

Q: And the GI50 [38]?
A: 34.6 µM

Q: And the GI50 [39]?
A: 23.8 µM (inactive)

Q: And the GI50 [40]?
A: 26.1 µM (inactive)

Q: And the GI50 [41]?
A: 43.9 µM (inactive)

Q: What about the GI50 [42] of the same compound?
A: 31.7 µM (inactive)

Q: And the GI50 [43]?
A: 33.7 µM (inactive)

Q: What about the GI50 [44] of the same compound?
A: 29.4 µM (inactive)

Q: And the GI50 [45]?
A: 30.5 µM (inactive)

Q: What about the GI50 [46] of the same compound?
A: 35.6 µM (inactive)

Q: And the GI50 [47]?
A: 12.9 µM (inactive)

Q: And the GI50 [48]?
A: 47.6 µM (inactive)

Q: What about the GI50 [49] of the same compound?
A: 34.1 µM (inactive)

Q: And the GI50 [50]?
A: 38.4 µM (inactive)

Q: What about the GI50 [51] of the same compound?
A: 34.8 µM (inactive)

Q: And the GI50 [52]?
A: 29.7 µM (inactive)

Q: What about the GI50 [53] of the same compound?
A: 28.1 µM (inactive)

Q: What about the GI50 [54] of the same compound?
A: 25.9 µM (inactive)

Q: And the GI50 [55]?
A: 31.8 µM (inactive)

Q: What about the GI50 [56] of the same compound?
A: 37.8 µM (inactive)

Q: How did the GI50 [1] turn out when O=c1cc(N2CCCC2)[nH]c(=O)n1-c1cccc(C(F)(F)F)c1 was run?
A: > 100 µM (inactive)

Q: And the GI50 [2]?
A: > 100 µM (inactive)

Q: What about the GI50 [3] of the same compound?
A: > 100 µM (inactive)

Q: And the GI50 [4]?
A: > 100 µM (inactive)

Q: And the GI50 [5]?
A: 76.4 µM (inactive)

Q: And the GI50 [6]?
A: > 100 µM (inactive)

Q: And the GI50 [7]?
A: > 100 µM (inactive)

Q: And the GI50 [8]?
A: > 100 µM (inactive)

Q: And the GI50 [9]?
A: > 100 µM (inactive)

Q: And the GI50 [10]?
A: > 100 µM (inactive)

Q: And the GI50 [12]?
A: > 100 µM (inactive)

Q: And the GI50 [13]?
A: > 100 µM (inactive)

Q: And the GI50 [14]?
A: > 100 µM (inactive)

Q: And the GI50 [57]?
A: > 100 µM (inactive)

Q: What about the GI50 [15] of the same compound?
A: > 100 µM (inactive)

Q: What about the GI50 [16] of the same compound?
A: > 100 µM (inactive)

Q: What about the GI50 [17] of the same compound?
A: > 100 µM (inactive)

Q: What about the GI50 [18] of the same compound?
A: > 100 µM (inactive)

Q: And the GI50 [19]?
A: > 100 µM (inactive)

Q: What about the GI50 [20] of the same compound?
A: > 100 µM (inactive)

Q: And the GI50 [21]?
A: > 100 µM (inactive)

Q: What about the GI50 [22] of the same compound?
A: > 100 µM (inactive)

Q: What about the GI50 [23] of the same compound?
A: > 100 µM (inactive)

Q: And the GI50 [24]?
A: > 100 µM (inactive)

Q: What about the GI50 [26] of the same compound?
A: > 100 µM (inactive)

Q: And the GI50 [27]?
A: > 100 µM (inactive)

Q: What about the GI50 [28] of the same compound?
A: > 100 µM (inactive)

Q: And the GI50 [29]?
A: > 100 µM (inactive)

Q: What about the GI50 [30] of the same compound?
A: > 100 µM (inactive)

Q: What about the GI50 [31] of the same compound?
A: > 100 µM (inactive)

Q: And the GI50 [32]?
A: > 100 µM (inactive)

Q: What about the GI50 [33] of the same compound?
A: > 100 µM (inactive)

Q: And the GI50 [34]?
A: > 100 µM (inactive)

Q: What about the GI50 [35] of the same compound?
A: > 100 µM (inactive)

Q: What about the GI50 [36] of the same compound?
A: > 100 µM (inactive)

Q: What about the GI50 [37] of the same compound?
A: > 100 µM (inactive)

Q: And the GI50 [38]?
A: > 100 µM

Q: And the GI50 [39]?
A: > 100 µM (inactive)

Q: What about the GI50 [40] of the same compound?
A: > 100 µM (inactive)

Q: And the GI50 [41]?
A: > 100 µM (inactive)

Q: What about the GI50 [42] of the same compound?
A: > 100 µM (inactive)

Q: What about the GI50 [58] of the same compound?
A: > 100 µM (inactive)

Q: And the GI50 [43]?
A: > 100 µM (inactive)

Q: And the GI50 [44]?
A: > 100 µM (inactive)

Q: What about the GI50 [45] of the same compound?
A: > 100 µM (inactive)

Q: What about the GI50 [47] of the same compound?
A: > 100 µM (inactive)

Q: What about the GI50 [48] of the same compound?
A: > 100 µM (inactive)

Q: And the GI50 [49]?
A: > 100 µM (inactive)

Q: What about the GI50 [51] of the same compound?
A: > 100 µM (inactive)

Q: And the GI50 [52]?
A: > 100 µM (inactive)

Q: What about the GI50 [53] of the same compound?
A: > 100 µM (inactive)

Q: And the GI50 [54]?
A: > 100 µM (inactive)

Q: And the GI50 [55]?
A: > 100 µM (inactive)

Q: What about the GI50 [56] of the same compound?
A: > 100 µM (inactive)
